Reference: patent US11180499B2, “Phosphodiesterase inhibitors” (BOARD OF REGENTS OF THE UNIVERSITY OF NEBRASKA, priority 2018, dated 2021)
pIC50: −log10 of the molar value.

Experiments:
PDE4B1 = target: T1, PDE4B1 (Homo sapiens, UniProt Q07343); experiment: Cell-based PDE4B assay (HEK293, PDE4B1 vector, CRE luciferase reporter, forskolin); details: versus apremilast
T1 construct: expressed in transfected cells; host or cells: HEK293
Method: Cells were incubated at 37° C. and 5% CO2 overnight. […] Cell based assays were performed in triplicate at each concentration.

WT mice = experiment: Locomotor analysis (cocaine-induced hyperlocomotion, open field); assay type: in vivo, mouse; details: for Locomotor activity of compound alone: Compound 8 + saline
Method: Locomotor analysis: WT mice (both gender, n=6-8) were divided into four groups receiving various treatments: (1) vehicle+saline; (2) vehicle+cocaine; (3) Compound 8+saline; and (4) Compound 8+cocaine. Cocaine was administered at 20 mg/kg (i.p.) and Compound 8 was used at two different doses 5 or 10 mg/kg (i.p.). Compound 8 was firstly injected into the mice and 30 min later followed with cocaine administration. To investigate the effects of Compound 8 on acute locomotor response, immediately following cocaine injection, mice were put into the open field apparatus (Truescan, Coulbourn instrument) to detect locomotor activity for 45 min. The TruScan photobeam activity system consists of a clear arena with infrared sensors located on a ring 3 cm above floor level. There are 16 beams spaced 1 inch apart on the sensor ring that are used to detect movements by mice. […] To investigate the effects of Compound 8 on locomotor sensitization, mice were repeatedly injected with Compound 8 and cocaine for 7 consecutive days and the locomotor responses were recorded every other day.

PDE4B = target: T2, PDE4B (Homo sapiens, UniProt Q07343); experiment: In vitro PDE4 inhibition study, PDE4B (BPS Bioscience); assay type: binding; details: for inhibition at 10 µM: values in parentheses
T2 construct: purchased BPS Bioscience, San Diego
Method: (§1) The IC50 values of Compound 8 on PDE4 isoforms were determined by BPS Bioscience, San Diego. In brief, coat proteins (PDE4 isoforms) were added into the plate in a volume of 50 μl (2-5 ng/μl) at 4° C. overnight. The next day, Compound 8 was added to the coated plate with varying concentrations followed by addition of the corresponding biotinylated binding partner. The reaction was incubated for 2 hours at room temperature. Binding assays were performed in duplicate at each concentration and the plates were read by using Synergy 2 BioTek plate reader. The luminescence data were analyzed using the Graphpad Prism. […] Data for a reference compounds or antibodies are included as a control for inhibition. “ND” indicates the compound was not tested.

[1] = test system: cocaine self-administered mice; experiment: Cocaine self-administration (seeking and taking behavior); assay type: in vivo, mouse; details: i.p., 30 min before 2 h FR1 session
Method: (a) Surgery procedure: WT mice (10-12 weeks, both genders) were implanted with permanently indwelling catheters (Plastics one) into the right jugular vein under a combination of ketamine hydrochloride ([…], i. p.) and xylazine ([…], i.p.) anesthesia. The catheter is tied to the vein with surgical silk and is passed subcutaneously to the back of the mouse where the catheter is affixed to a small plastic pedestal (26 G, Plastics One Company). After the surgery, the catheters were flushed daily with heparin (30 IU/mi) to avoid clotting. Mice were allowed at least 7 days of recovery in their home before the start of the experiments.
(b) The establishment of cocaine self-administered mice: Mice were individually put into sound-mitigation cubicles (Coulbourne Instrument) for the training of self-administered cocaine (1.0 mg/kg/infusion). […] A timeout period of 15 seconds followed each drug injection. All responses were recorded automatically using a computer interface and Graphic State Notation 4 software (Coulbourne Instrument). Mice were trained to self-administer cocaine during one daily session under a fixed ratio 1 (FR1) schedule. […]
(c) The effects of Compound 8 on cocaine-mediated seeking and taking behavior. […] The numbers of active nose-poke and cocaine infusions were recorded. […]

PDE4D = target: T3, PDE4D (Homo sapiens, UniProt Q08499); experiment: In vitro PDE4 inhibition study, PDE4D (BPS Bioscience); assay type: binding; details: values in parentheses
T3 construct: purchased BPS Bioscience, San Diego
Method: as §1

T2 sequence (Q07343 whole entry): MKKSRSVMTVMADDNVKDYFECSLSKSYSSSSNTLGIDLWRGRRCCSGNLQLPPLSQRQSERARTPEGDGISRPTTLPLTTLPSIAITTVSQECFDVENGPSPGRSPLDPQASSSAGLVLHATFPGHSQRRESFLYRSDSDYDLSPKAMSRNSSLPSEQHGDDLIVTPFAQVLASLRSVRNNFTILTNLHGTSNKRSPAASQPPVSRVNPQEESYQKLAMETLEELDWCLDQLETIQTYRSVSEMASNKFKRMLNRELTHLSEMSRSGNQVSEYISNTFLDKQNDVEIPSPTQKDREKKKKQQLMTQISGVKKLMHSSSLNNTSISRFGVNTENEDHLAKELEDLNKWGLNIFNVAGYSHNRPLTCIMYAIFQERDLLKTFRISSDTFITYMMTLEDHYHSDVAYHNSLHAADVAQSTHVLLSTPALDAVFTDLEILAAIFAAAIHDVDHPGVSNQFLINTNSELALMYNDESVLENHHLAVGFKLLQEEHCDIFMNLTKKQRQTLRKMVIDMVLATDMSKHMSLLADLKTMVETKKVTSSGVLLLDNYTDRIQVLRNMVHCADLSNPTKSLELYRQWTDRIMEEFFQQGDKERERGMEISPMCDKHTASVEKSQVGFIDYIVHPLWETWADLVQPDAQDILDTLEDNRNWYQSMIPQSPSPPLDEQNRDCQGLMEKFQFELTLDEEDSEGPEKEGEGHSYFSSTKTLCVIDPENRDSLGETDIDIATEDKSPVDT
T3 sequence (Q08499 whole entry): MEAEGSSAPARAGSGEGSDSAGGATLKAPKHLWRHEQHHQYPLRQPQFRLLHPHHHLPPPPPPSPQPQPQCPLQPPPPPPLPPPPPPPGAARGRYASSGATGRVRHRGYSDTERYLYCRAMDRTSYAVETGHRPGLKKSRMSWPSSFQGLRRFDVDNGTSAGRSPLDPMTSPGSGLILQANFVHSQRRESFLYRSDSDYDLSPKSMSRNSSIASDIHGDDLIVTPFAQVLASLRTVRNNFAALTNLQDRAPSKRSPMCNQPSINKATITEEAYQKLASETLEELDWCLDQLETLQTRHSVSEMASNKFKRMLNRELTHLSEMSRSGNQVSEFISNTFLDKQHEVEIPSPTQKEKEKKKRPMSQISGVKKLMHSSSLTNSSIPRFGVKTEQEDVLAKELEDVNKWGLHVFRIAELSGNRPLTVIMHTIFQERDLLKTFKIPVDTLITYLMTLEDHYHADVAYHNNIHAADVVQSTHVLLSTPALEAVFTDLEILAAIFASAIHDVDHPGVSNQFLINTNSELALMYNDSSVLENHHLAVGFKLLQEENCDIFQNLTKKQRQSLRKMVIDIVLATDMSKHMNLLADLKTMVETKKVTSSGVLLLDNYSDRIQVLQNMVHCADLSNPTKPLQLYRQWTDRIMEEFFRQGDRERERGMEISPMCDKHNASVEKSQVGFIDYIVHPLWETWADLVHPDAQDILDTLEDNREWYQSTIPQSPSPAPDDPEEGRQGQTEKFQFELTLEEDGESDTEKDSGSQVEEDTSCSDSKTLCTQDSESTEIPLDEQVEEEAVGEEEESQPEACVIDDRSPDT
T1 sequence (Q07343 whole entry): as the sequence (Q07343 whole entry) above

SMILES | EC50 for PDE4B inhibition relative to apremilast (PDE4B1) | pIC50 (PDE4B) | inhibition at 10 µM (PDE4D) | inhibition at 10 µM (PDE4B) | Cocaine-induced hyperlocomotion (WT mice; 5 or 10 mg/kg i.p. 30 min before cocaine 20 mg/kg i.p.) | Locomotor activity of compound alone (WT mice) | Locomotor activity of compound alone (WT mice; listed as compound 8) | Cocaine-mediated seeking and taking behavior (active nose-pokes, cocaine infusions) [1]
O=C(c1cc2cccnc2n1-c1ccc(Cl)c(Cl)c1)N1CC(F)(F)C1 [Compound 8, (1-(3,4-dichlorophenyl)-1H-pyrrolo[2,3-b]pyridin-2-yl)(3,3-difluoroazetidin-1-yl)methanone] | ten-fold lower EC50 | 6.85 | – | – | inhibited the cocaine induce hyperlocomotion | without any increase alone | without any increase by itself | significantly decreased
N#Cc1c(F)cc(-n2c(C(=O)NC3CC(F)(F)C3)cc3cccnc32)cc1F [Compound 29, 1-(4-cyano-3,5-difluorophenyl)-N-(3,3-difluorocyclobutyl)-1H-pyrrolo[2,3-b]pyridine-2-carboxamide] | – | – | 18% | 47% | – | – | – | –
N#Cc1c(F)cc(-n2c(C(=O)NC3CC(F)C3)cc3cccnc32)cc1F (centres unmarked) [Compound 28, 1-(4-cyano-3,5-difluorophenyl)-N-(3-fluorocyclobutyl)-1H-pyrrolo[2,3-b]pyridine-2-carboxamide] | – | – | 12.1% | 58% | – | – | – | –

More lines, main results first:

EC50 for PDE4B inhibition relative to apremilast (PDE4B1) | pIC50 (PDE4B) | inhibition at 10 µM (PDE4D) | inhibition at 10 µM (PDE4B) | SMILES | Cocaine-induced hyperlocomotion (WT mice; 5 or 10 mg/kg i.p. 30 min before cocaine 20 mg/kg i.p.) | Locomotor activity of compound alone (WT mice) | Locomotor activity of compound alone (WT mice; listed as compound 8) | Cocaine-mediated seeking and taking behavior (active nose-pokes, cocaine infusions) [1]
– | 6.68 | 62% | – | O=C(c1cc2cccnc2n1-c1cc(F)c(Cl)c(F)c1)N1CC(F)C1 [Compound 25, (1-(4-chloro-3,5-difluorophenyl)-1H-pyrrolo[2,3-b]pyridin-2-yl)(3-fluoroazetidin-1-yl) methanone] | – | – | – | –
– | 6.01 | 24% | – | O=C(NC1CC1)c1cc2cccnc2n1-c1ccc(Cl)c(F)c1 [Compound 33, 1-(4-chloro-3-fluorophenyl)-N-cyclopropyl-1H-pyrrolo[2,3-b]pyridine-2-carboxamide] | – | – | – | –
